The subject of one data set is cells. To be noted: cells kept in the dark compared to those exposed to light; cited from earlier work.
The test system of a further data set is B16 cancer cells. Put plainly: Clonogenic cell kill (surviving colonies) with x-ray stimulated phosphor mixtures with and without psoralen (AMT). It is filed as cell-based. The source says:
Accordingly, combinations of more than two “visible” phosphors can be used in this invention. Discussed below are x-ray settings and mass ratios for clonogenic cell kill experiments. F1 refers to the insertion of an aluminum filter into the x-ray beam to act as a filter.
Psoralen is known to be activated by UV light in the range from 300 to 400 nm. Thus, a measure of cell kill would normally be assumed to be an indirect measure of the internal generation of UV light.
FIGS. 18A and 18B is a plotted cell kill comparison (shown here as the number of surviving colonies) between B16 cancer cells treated with and without psoralen (i.e., AMT) with different phosphor mixtures, but otherwise being x-ray stimulated and containing the multiple phosphor combinations noted above. On these drawings, LDLE=low xRT dose, low energy; HDHE=high xRT dose, high energy.

In data set [1] the test system is human bladder cancer cells. To be noted: cited from earlier work.
Data set [2] has as its system cisplatin-resistant cells. The settings on record: photolyzed complex; cited from earlier work.

The values that follow come from patent US11678682B2, “Phosphor composition having selected surface coatings” (IMMUNOLIGHT, LLC, priority 2013, dated 2023).

Where two headings read alike, the source gives them in different places.

Take `NCCN.[Cl][Pt]([Cl])([I])[I]` [[PtCl2I2(en)]]: the “cytotoxicity, dark versus light” value with cells was “no difference in cytotoxicity”.
For `O=c1ccc2cc3ccoc3cc2o1` [psoralen], in the data set on B16 cancer cells (B16 cells, x-ray stimulated RYG/FYG phosphor mixtures), the “cell kill (number of surviving colonies), with versus without psoralen (FIGS. 18A and 18B)” value is “improved cell kill”. For the same compound, the “clonogenic colony survival, with versus without psoralen (FIG. 19C)” value with B16 cancer cells (flamingo, yellow, green FYG phosphor combination) is given as “pronounced cell kill”. Moreover, the “cell kill, with versus without psoralen (FIGS. 19A and 19B)” value in the data set with B16 cancer cells (higher kVp x-ray conditions) was “does not show an increased kill”.
As to Cis,trans,cis-[Pt(N3)2(OH)2(NH3)2], the growth inhibition result is “very little growth inhibition” in data set [1] (cells treated with the complex and kept in the dark); “inhibits the growth” in data set [1] (photolyzed complex); “inhibits the growth” in data set [2].
